# How the values were obtained:
# RyR2 [1] = molecular target: T1, RyR2 (Mus musculus, UniProt E9Q401); assay: [3H]ryanodine binding to microsomes; format: biochemical
# RyR2 [2] = molecular target: T1, RyR2; assay: ER Ca2+; format: cell-based
# T1 sequence (E9Q401 whole entry): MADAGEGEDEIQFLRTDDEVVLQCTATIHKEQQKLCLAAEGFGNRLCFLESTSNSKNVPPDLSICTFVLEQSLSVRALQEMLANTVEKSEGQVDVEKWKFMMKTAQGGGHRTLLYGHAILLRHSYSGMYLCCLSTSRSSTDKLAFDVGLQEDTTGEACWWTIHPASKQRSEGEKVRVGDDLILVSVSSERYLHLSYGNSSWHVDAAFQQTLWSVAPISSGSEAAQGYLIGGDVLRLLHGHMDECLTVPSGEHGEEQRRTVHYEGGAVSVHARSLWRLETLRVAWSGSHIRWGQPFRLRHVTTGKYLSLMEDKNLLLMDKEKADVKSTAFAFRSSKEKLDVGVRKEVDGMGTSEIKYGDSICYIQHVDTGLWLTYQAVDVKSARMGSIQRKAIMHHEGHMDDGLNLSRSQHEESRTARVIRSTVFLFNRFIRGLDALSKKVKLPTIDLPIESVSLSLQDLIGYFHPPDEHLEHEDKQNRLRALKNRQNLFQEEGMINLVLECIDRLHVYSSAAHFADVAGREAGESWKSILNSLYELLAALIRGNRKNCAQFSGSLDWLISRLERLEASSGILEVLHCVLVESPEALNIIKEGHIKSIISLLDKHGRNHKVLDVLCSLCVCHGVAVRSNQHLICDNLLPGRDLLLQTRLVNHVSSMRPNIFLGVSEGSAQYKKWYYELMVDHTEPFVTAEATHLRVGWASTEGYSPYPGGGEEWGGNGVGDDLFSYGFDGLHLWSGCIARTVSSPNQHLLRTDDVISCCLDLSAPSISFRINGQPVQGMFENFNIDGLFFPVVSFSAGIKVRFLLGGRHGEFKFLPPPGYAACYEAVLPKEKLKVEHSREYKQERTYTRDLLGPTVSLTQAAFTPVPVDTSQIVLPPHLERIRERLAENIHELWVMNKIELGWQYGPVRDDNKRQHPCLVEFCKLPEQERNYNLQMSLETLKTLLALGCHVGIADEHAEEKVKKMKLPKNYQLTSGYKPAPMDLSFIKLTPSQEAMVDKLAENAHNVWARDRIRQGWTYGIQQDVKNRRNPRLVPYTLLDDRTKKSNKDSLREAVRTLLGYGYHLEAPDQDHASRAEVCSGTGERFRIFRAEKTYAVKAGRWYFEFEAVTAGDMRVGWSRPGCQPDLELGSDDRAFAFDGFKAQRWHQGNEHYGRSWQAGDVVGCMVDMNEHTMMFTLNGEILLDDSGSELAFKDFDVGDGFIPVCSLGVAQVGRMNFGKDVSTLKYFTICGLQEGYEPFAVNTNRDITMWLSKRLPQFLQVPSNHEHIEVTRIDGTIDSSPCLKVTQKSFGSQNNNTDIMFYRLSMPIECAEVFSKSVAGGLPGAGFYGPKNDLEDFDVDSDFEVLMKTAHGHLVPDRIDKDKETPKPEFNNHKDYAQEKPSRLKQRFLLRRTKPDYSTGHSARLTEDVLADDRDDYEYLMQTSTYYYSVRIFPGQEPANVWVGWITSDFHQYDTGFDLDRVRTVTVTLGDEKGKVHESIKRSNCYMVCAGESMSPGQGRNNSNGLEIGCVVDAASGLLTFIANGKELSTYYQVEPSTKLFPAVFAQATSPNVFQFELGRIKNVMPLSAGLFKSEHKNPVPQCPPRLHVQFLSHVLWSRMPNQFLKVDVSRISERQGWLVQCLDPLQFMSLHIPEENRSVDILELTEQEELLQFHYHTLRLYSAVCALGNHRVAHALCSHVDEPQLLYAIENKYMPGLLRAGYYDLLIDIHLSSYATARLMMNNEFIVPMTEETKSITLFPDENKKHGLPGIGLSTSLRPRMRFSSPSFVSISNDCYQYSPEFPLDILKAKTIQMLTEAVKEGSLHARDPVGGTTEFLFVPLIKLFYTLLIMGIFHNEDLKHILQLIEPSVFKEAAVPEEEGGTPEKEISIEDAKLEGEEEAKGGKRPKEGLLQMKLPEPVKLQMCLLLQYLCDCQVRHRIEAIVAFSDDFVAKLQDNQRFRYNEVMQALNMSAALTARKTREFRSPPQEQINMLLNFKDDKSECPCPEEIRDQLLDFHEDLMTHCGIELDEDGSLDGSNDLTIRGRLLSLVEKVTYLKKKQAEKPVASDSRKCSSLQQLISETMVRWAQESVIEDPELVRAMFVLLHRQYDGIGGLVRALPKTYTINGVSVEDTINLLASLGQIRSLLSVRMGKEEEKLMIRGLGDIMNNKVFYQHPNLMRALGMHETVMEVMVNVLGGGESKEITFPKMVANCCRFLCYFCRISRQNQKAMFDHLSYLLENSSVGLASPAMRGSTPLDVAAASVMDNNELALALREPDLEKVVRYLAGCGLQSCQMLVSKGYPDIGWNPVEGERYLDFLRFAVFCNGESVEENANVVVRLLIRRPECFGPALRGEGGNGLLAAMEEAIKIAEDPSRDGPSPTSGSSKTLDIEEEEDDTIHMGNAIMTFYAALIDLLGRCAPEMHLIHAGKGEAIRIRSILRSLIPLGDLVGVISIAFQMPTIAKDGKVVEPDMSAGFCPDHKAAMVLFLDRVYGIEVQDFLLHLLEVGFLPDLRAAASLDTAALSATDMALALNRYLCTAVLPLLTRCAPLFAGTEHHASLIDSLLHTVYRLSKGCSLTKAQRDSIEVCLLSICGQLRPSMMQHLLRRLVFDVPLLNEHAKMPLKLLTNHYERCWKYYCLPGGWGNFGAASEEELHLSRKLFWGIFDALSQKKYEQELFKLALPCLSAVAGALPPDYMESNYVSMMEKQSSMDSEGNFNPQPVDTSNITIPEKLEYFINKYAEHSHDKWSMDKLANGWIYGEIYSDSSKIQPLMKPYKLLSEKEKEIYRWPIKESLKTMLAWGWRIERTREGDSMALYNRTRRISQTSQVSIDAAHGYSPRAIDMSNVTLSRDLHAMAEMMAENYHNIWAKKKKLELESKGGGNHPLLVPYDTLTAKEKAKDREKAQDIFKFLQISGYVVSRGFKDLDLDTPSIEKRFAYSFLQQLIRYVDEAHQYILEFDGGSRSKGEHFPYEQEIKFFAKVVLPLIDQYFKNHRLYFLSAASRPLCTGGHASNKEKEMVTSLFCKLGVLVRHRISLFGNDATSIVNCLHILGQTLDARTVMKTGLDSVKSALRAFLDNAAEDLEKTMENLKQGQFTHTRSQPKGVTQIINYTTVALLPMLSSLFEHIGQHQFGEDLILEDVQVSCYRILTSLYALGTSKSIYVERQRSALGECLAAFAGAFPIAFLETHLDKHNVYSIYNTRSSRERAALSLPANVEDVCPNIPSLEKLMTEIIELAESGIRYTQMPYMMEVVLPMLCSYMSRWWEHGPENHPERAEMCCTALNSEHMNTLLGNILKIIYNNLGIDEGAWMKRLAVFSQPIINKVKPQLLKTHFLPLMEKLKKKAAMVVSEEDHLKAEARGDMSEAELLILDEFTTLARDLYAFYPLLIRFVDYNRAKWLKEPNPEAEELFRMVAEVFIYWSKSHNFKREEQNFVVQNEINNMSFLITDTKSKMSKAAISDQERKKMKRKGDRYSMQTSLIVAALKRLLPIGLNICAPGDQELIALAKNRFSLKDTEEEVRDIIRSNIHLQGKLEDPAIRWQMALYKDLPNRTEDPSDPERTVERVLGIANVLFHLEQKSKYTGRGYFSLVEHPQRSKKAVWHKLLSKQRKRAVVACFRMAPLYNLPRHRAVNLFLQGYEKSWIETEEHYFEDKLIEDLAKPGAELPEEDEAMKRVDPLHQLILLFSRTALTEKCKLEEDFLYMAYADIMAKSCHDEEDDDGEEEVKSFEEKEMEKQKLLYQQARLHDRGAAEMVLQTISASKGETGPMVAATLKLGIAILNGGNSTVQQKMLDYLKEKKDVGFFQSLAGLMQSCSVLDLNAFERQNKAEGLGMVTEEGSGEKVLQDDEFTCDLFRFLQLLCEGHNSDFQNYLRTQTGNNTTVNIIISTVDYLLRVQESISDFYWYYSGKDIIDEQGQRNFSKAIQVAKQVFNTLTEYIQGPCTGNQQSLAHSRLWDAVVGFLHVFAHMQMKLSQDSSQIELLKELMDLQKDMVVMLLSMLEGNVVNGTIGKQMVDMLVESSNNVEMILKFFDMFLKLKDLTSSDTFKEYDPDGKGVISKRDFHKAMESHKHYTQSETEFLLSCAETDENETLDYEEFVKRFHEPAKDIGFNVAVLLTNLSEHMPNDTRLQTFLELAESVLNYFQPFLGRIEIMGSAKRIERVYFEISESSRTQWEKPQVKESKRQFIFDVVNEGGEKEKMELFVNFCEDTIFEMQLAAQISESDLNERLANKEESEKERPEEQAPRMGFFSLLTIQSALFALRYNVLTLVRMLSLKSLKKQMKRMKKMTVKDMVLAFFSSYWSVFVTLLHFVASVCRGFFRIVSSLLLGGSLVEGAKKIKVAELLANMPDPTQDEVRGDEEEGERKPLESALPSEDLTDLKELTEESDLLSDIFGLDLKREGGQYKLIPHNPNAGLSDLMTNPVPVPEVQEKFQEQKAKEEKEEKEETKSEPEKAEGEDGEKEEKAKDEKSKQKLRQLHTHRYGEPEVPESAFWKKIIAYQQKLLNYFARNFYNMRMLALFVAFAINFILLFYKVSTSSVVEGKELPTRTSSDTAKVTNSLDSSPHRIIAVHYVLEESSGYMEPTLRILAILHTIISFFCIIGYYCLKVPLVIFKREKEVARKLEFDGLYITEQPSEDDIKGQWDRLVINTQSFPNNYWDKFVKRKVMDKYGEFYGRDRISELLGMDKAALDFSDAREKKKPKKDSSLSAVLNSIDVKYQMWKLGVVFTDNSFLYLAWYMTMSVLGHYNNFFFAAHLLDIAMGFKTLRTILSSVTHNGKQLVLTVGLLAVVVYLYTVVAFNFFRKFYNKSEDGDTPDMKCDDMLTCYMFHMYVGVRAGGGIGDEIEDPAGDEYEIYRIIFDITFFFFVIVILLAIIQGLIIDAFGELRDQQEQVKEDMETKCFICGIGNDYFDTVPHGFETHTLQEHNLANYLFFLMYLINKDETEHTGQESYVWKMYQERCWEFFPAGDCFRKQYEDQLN
smiles,measurement,setting,value
"Cc1cc(O)cc(C)c1Cl [#1, chloroxylenol]",IC50,RyR2 [1],130 nM
same,EC50,RyR2 [2],300 nM

# From publication doi:10.1101/2023.08.21.553510v1 (biorxiv, 2023)
